Reference: the supplement of paper PMC10307832

What was measured:
Test in all cases: relative viability (nuclei count vs DMSO), 5 days (fraction); higher = more cells survive
Calu-6 = system: Calu-6
How it was run: (§1)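 After 5 days of treatment, lung cancer cells in 1536-well plates were fixed and stained in a single step (final 0.05% Triton X-100, 1% formaldehyde, 1 ug/ml Hoechst) and their nuclei counted on 4× images. Treatment had been applied by pin tool the day after seeding as one drug alone or as a fixed anchor-drug dose with five library-drug doses (not always all listed) in √10 steps. Relative viability is the nuclei count of treated wells divided by that of vehicle wells, and values are medians of duplicate plates.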

EBC-1 = system: EBC-1
How it was run: as §1

EMC-BAC-2 = system: EMC-BAC-2
How it was run: as §1

HCC-366 = system: HCC-366
How it was run: as §1

HCC-78 = system: HCC-78
How it was run: as §1

IA-LM = system: IA-LM
How it was run: as §1

LCLC-97TM1 = system: LCLC-97TM1
How it was run: as §1

NCI-H1299 = system: NCI-H1299
How it was run: as §1

NCI-H1703 = system: NCI-H1703
How it was run: as §1

A549 = system: A549
How it was run: as §1

## Nc1cccc2c1CN(C1CCC(=O)NC1=O)C2=O (stereo not drawn) [Lenalidomide] + CC(C)C[C@H](NC(=O)[C@H](Cc1ccccc1)NC(=O)c1cnccn1)B(O)O [Bortezomib] (partner 0.002 µM)
Calu-6; first compound 0.253 µM
  relative viability: 1.04
Calu-6; first compound 0.8 µM
  relative viability: 1.01
Calu-6; first compound 2.53 µM
  relative viability: 0.997
Calu-6; first compound 8 µM
  relative viability: 1.06
EBC-1; first compound 0.253 µM
  relative viability: 0.653
EBC-1; first compound 0.8 µM
  relative viability: 0.589
EBC-1; first compound 2.53 µM
  relative viability: 0.684
EBC-1; first compound 8 µM
  relative viability: 0.564
EMC-BAC-2; first compound 0.253 µM
  relative viability: 1.04
EMC-BAC-2; first compound 0.8 µM
  relative viability: 0.857
EMC-BAC-2; first compound 2.53 µM
  relative viability: 1.15
EMC-BAC-2; first compound 8 µM
  relative viability: 0.913
HCC-366; first compound 0.253 µM
  relative viability: 0.985
HCC-366; first compound 0.8 µM
  relative viability: 1.03
HCC-366; first compound 2.53 µM
  relative viability: 1.08
HCC-366; first compound 8 µM
  relative viability: 1.05
HCC-78; first compound 0.253 µM
  relative viability: 0.469
HCC-78; first compound 0.8 µM
  relative viability: 0.368
HCC-78; first compound 2.53 µM
  relative viability: 0.461
HCC-78; first compound 8 µM
  relative viability: 0.392
IA-LM; first compound 0.253 µM
  relative viability: 0.946
IA-LM; first compound 0.8 µM
  relative viability: 0.753
IA-LM; first compound 2.53 µM
  relative viability: 0.884
IA-LM; first compound 8 µM
  relative viability: 0.764
LCLC-97TM1; first compound 0.253 µM
  relative viability: 0.673
LCLC-97TM1; first compound 0.8 µM
  relative viability: 0.514
LCLC-97TM1; first compound 2.53 µM
  relative viability: 0.705
LCLC-97TM1; first compound 8 µM
  relative viability: 0.416
NCI-H1299; first compound 0.253 µM
  relative viability: 1.03
NCI-H1299; first compound 0.8 µM
  relative viability: 1.01
NCI-H1299; first compound 2.53 µM
  relative viability: 1.06
NCI-H1299; first compound 8 µM
  relative viability: 1.06
NCI-H1703; first compound 0.253 µM
  relative viability: 0.231
NCI-H1703; first compound 0.8 µM
  relative viability: 0.399
NCI-H1703; first compound 2.53 µM
  relative viability: 0.328
NCI-H1703; first compound 8 µM
  relative viability: 0.47

## CCNC(=O)c1noc(-c2cc(C(C)C)c(O)cc2O)c1-c1ccc(CN2CCOCC2)cc1 [Luminespib] + CC(C)C[C@H](NC(=O)[C@H](Cc1ccccc1)NC(=O)c1cnccn1)B(O)O [Bortezomib] (partner 0.002 µM)
Calu-6; first compound 0.002 µM
  relative viability: 1.06
Calu-6; first compound 0.006325 µM
  relative viability: 0.883
Calu-6; first compound 0.02 µM
  relative viability: 1.21
Calu-6; first compound 0.06325 µM
  relative viability: 0.141
Calu-6; first compound 0.2 µM
  relative viability: 0.159
EBC-1; first compound 0.002 µM
  relative viability: 0.583
EBC-1; first compound 0.006325 µM
  relative viability: 0.541
EBC-1; first compound 0.02 µM
  relative viability: 0.318
EBC-1; first compound 0.06325 µM
  relative viability: 0.118
EBC-1; first compound 0.2 µM
  relative viability: 0.169
EMC-BAC-2; first compound 0.002 µM
  relative viability: 1.1
EMC-BAC-2; first compound 0.006325 µM
  relative viability: 1.02
EMC-BAC-2; first compound 0.02 µM
  relative viability: 0.844
EMC-BAC-2; first compound 0.06325 µM
  relative viability: 1.1
EMC-BAC-2; first compound 0.2 µM
  relative viability: 0.913
HCC-366; first compound 0.002 µM
  relative viability: 1.01
HCC-366; first compound 0.006325 µM
  relative viability: 1.01
HCC-366; first compound 0.02 µM
  relative viability: 0.474
HCC-366; first compound 0.06325 µM
  relative viability: 0.025
HCC-366; first compound 0.2 µM
  relative viability: 0.0174
HCC-78; first compound 0.002 µM
  relative viability: 0.441
HCC-78; first compound 0.006325 µM
  relative viability: 0.527
HCC-78; first compound 0.06325 µM
  relative viability: 0.745
HCC-78; first compound 0.2 µM
  relative viability: 0.262
IA-LM; first compound 0.002 µM
  relative viability: 0.819
IA-LM; first compound 0.006325 µM
  relative viability: 0.951
IA-LM; first compound 0.02 µM
  relative viability: 0.648
IA-LM; first compound 0.06325 µM
  relative viability: 0.067
IA-LM; first compound 0.2 µM
  relative viability: 0.0656
LCLC-97TM1; first compound 0.002 µM
  relative viability: 0.876
LCLC-97TM1; first compound 0.006325 µM
  relative viability: 0.635
LCLC-97TM1; first compound 0.02 µM
  relative viability: 0.638
LCLC-97TM1; first compound 0.06325 µM
  relative viability: 0.0526
LCLC-97TM1; first compound 0.2 µM
  relative viability: 0.0579
NCI-H1299; first compound 0.002 µM
  relative viability: 1.01
NCI-H1299; first compound 0.006325 µM
  relative viability: 0.999
NCI-H1299; first compound 0.02 µM
  relative viability: 1.04
NCI-H1299; first compound 0.06325 µM
  relative viability: 0.946
NCI-H1299; first compound 0.2 µM
  relative viability: 0.248
NCI-H1703; first compound 0.002 µM
  relative viability: 0.494
NCI-H1703; first compound 0.006325 µM
  relative viability: 0.415
NCI-H1703; first compound 0.02 µM
  relative viability: 0.224
NCI-H1703; first compound 0.06325 µM
  relative viability: 0.13
NCI-H1703; first compound 0.2 µM
  relative viability: 0.14

## CCNC(=O)c1noc(-c2cc(C(C)C)c(O)cc2O)c1-c1ccc(CN2CCOCC2)cc1 [Luminespib] + C[C@@H](Oc1cc(-c2cnn(C3CCNCC3)c2)cnc1N)c1c(Cl)ccc(F)c1Cl [Crizotinib] (partner 1 µM)
A549; first compound 0.002 µM
  relative viability: 0.861
A549; first compound 0.006325 µM
  relative viability: 0.593
A549; first compound 0.02 µM
  relative viability: 0.51
A549; first compound 0.06325 µM
  relative viability: 0.0411
A549; first compound 0.2 µM
  relative viability: 0.0426
Calu-6; first compound 0.002 µM
  relative viability: 0.793
Calu-6; first compound 0.006325 µM
  relative viability: 0.88
Calu-6; first compound 0.02 µM
  relative viability: 1.01
Calu-6; first compound 0.06325 µM
  relative viability: 0.109
Calu-6; first compound 0.2 µM
  relative viability: 0.097
EBC-1; first compound 0.002 µM
  relative viability: 0.196
EBC-1; first compound 0.006325 µM
  relative viability: 0.195
EBC-1; first compound 0.02 µM
  relative viability: 0.179
EBC-1; first compound 0.06325 µM
  relative viability: 0.173
EBC-1; first compound 0.2 µM
  relative viability: 0.165
EMC-BAC-2; first compound 0.002 µM
  relative viability: 0.844
EMC-BAC-2; first compound 0.006325 µM
  relative viability: 0.772
EMC-BAC-2; first compound 0.02 µM
  relative viability: 0.584
EMC-BAC-2; first compound 0.06325 µM
  relative viability: 0.729
EMC-BAC-2; first compound 0.2 µM
  relative viability: 0.759
HCC-366; first compound 0.002 µM
  relative viability: 0.695
HCC-366; first compound 0.006325 µM
  relative viability: 0.659
HCC-366; first compound 0.02 µM
  relative viability: 0.549
HCC-366; first compound 0.06325 µM
  relative viability: 0.0174
HCC-366; first compound 0.2 µM
  relative viability: 0.0135
HCC-78; first compound 0.002 µM
  relative viability: 0.302
HCC-78; first compound 0.06325 µM
  relative viability: 0.337
HCC-78; first compound 0.2 µM
  relative viability: 0.232
IA-LM; first compound 0.002 µM
  relative viability: 0.753
IA-LM; first compound 0.006325 µM
  relative viability: 0.848
IA-LM; first compound 0.02 µM
  relative viability: 1
IA-LM; first compound 0.06325 µM
  relative viability: 0.0538
IA-LM; first compound 0.2 µM
  relative viability: 0.04
LCLC-97TM1; first compound 0.002 µM
  relative viability: 0.417
LCLC-97TM1; first compound 0.006325 µM
  relative viability: 0.461
LCLC-97TM1; first compound 0.02 µM
  relative viability: 0.157
LCLC-97TM1; first compound 0.06325 µM
  relative viability: 0.221
LCLC-97TM1; first compound 0.2 µM
  relative viability: 0.22
NCI-H1299; first compound 0.002 µM
  relative viability: 0.953
NCI-H1299; first compound 0.006325 µM
  relative viability: 0.953
NCI-H1299; first compound 0.02 µM
  relative viability: 1.01
NCI-H1299; first compound 0.06325 µM
  relative viability: 0.915
NCI-H1299; first compound 0.2 µM
  relative viability: 0.229
NCI-H1703; first compound 0.002 µM
  relative viability: 0.806
NCI-H1703; first compound 0.006325 µM
  relative viability: 0.653
NCI-H1703; first compound 0.02 µM
  relative viability: 0.367
NCI-H1703; first compound 0.06325 µM
  relative viability: 0.119
NCI-H1703; first compound 0.2 µM
  relative viability: 0.0858

## Cc1csc(=NC2CCCCC2)n1/N=C/c1ccc(O)c(O)c1O [MIM1] + CC(C)C[C@H](NC(=O)[C@H](Cc1ccccc1)NC(=O)c1cnccn1)B(O)O [Bortezomib] (partner 0.002 µM)
Calu-6; first compound 0.2 µM
  relative viability: 1.05
Calu-6; first compound 0.6325 µM
  relative viability: 1.1
Calu-6; first compound 2 µM
  relative viability: 0.923
Calu-6; first compound 6.325 µM
  relative viability: 0.289
Calu-6; first compound 20 µM
  relative viability: 0.203
EBC-1; first compound 0.2 µM
  relative viability: 0.496
EBC-1; first compound 0.6325 µM
  relative viability: 0.569
EBC-1; first compound 2 µM
  relative viability: 0.647
EBC-1; first compound 6.325 µM
  relative viability: 0.324
EBC-1; first compound 20 µM
  relative viability: 0.242
EMC-BAC-2; first compound 0.2 µM
  relative viability: 1.08
EMC-BAC-2; first compound 0.6325 µM
  relative viability: 0.822
EMC-BAC-2; first compound 2 µM
  relative viability: 1.08
EMC-BAC-2; first compound 6.325 µM
  relative viability: 0.996
EMC-BAC-2; first compound 20 µM
  relative viability: 0.259
HCC-366; first compound 0.2 µM
  relative viability: 1.02
HCC-366; first compound 0.6325 µM
  relative viability: 0.994
HCC-366; first compound 2 µM
  relative viability: 0.793
HCC-366; first compound 6.325 µM
  relative viability: 0.998
HCC-366; first compound 20 µM
  relative viability: 0.0323
HCC-78; first compound 0.2 µM
  relative viability: 0.491
HCC-78; first compound 0.6325 µM
  relative viability: 0.555
HCC-78; first compound 2 µM
  relative viability: 0.559
HCC-78; first compound 6.325 µM
  relative viability: 0.418
HCC-78; first compound 20 µM
  relative viability: 0.4
IA-LM; first compound 0.2 µM
  relative viability: 0.754
IA-LM; first compound 0.6325 µM
  relative viability: 0.792
IA-LM; first compound 2 µM
  relative viability: 0.783
IA-LM; first compound 6.325 µM
  relative viability: 0.275
IA-LM; first compound 20 µM
  relative viability: 0.0874
LCLC-97TM1; first compound 0.2 µM
  relative viability: 0.66
LCLC-97TM1; first compound 0.6325 µM
  relative viability: 0.811
LCLC-97TM1; first compound 2 µM
  relative viability: 0.214
LCLC-97TM1; first compound 6.325 µM
  relative viability: 0.346
LCLC-97TM1; first compound 20 µM
  relative viability: 0.0592
NCI-H1299; first compound 0.2 µM
  relative viability: 1.01
NCI-H1299; first compound 0.6325 µM
  relative viability: 1.03
NCI-H1299; first compound 2 µM
  relative viability: 0.999
NCI-H1299; first compound 6.325 µM
  relative viability: 0.965
NCI-H1299; first compound 20 µM
  relative viability: 0.994
NCI-H1703; first compound 0.2 µM
  relative viability: 0.386
NCI-H1703; first compound 0.6325 µM
  relative viability: 0.358
NCI-H1703; first compound 2 µM
  relative viability: 0.318
NCI-H1703; first compound 6.325 µM
  relative viability: 0.155
NCI-H1703; first compound 20 µM
  relative viability: 0.133
